According to ChEMBL document CHEMBL1141520, “New cytotoxic saturated and unsaturated cyclohexanones from Anthemis maritima” (Bioorg Med Chem Lett, 2008):
pIC50: −log10 of the molar value.

Columns and labels:
Format in all cases: functional, cell-based
HCT-116 = experiment: Antiproliferative activity against human HCT116 cells after 72 hrs by WST1 based assay; conditions: HCT-116, 72 h
Caco-2 = experiment: Antiproliferative activity against human CaCo2 cells after 72 hrs by WST1 based assay; conditions: Caco-2, 72 h
MCF7 = experiment: Antiproliferative activity against human MCF7 cells after 72 hrs by WST1 based assay; conditions: MCF7, 72 h
HL-60 = experiment: Antiproliferative activity against human HL60 cells after 72 hrs by WST1 based assay; conditions: HL-60, 72 h
U-937 = experiment: Antiproliferative activity against human U937 cells after 72 hrs by WST1 based assay; conditions: U-937, 72 h
Jurkat = experiment: Antiproliferative activity against human Jurkat T cells after 72 hrs by WST1 based assay

Compound | pIC50 (HCT-116) | pIC50 (Caco-2) | pIC50 (MCF7) | pIC50 (HL-60) | pIC50 (U-937) | pIC50 (Jurkat)
C=C1C(=O)O[C@@H]2C3O[C@]3(C)CC/C=C(\C)CC[C@@H]12 (stereo partly drawn) | 5.23 | 4.98 | 5.03 | 6.05 | 5.66 | 5.72
CC(C)=CCCC(C)(O)[C@H]1CC(=O)C(CO)=C[C@@H]1O (stereo partly drawn) [ANTHEMINONE A] | 4.82 | 4.96 | 4.68 | 5.12 | 5.21 | 5.05
C=C1C(=O)C[C@@H](C(C)(O)CCC=C(C)C)[C@H](O)[C@H]1O (stereo partly drawn) [ANTHEMINONE C] | 4.72 | 5.03 | 4.82 | 5.49 | 5.13 | 5.08
